In patent US20110224170A1, “Pyranopyranone derivatives as antimicrobial agents” (BASF SE, priority 2010, published 2011):
Converted amounts (≈) assume the structure as drawn.

Assays:
[1] = tested on: A. niger ATCC 6275; experiment: Suspension test for fungicidal activity (modified EN 1275), residual cell count; type: cell-based, Aspergillus niger
Method: The fungicidal activity of the compounds of the present invention is measured in a suspension test according to trivial modifications of the European Standard method EN 1275. The pyrano pyranone derivatives are dissolved in ethanol or DMSO resulting in 1% stock solutions of the compounds. The cell density of Candida albicans ATCC 10231 used as inoculum for the suspension test was 2.4×10^8 cfu/ml and of A. niger ATCC 6275 3.8×10^8 cfu/ml. Aliquots of 1 ml were taken of the A. niger containing test mixtures after set contact times for determination of the residual cell count. For inactivation of the antimicrobial compounds, the 1 ml aliquots were diluted in 1:10 steps in a solution of the following composition: [table]

[2] = tested on: Candida albicans ATCC 10231; experiment: as above; type: cell-based; settings: C. albicans
Method: The fungicidal activity of the compounds of the present invention is measured in a suspension test according to trivial modifications of the European Standard method EN 1275. The pyrano pyranone derivatives are dissolved in ethanol or DMSO resulting in 1% stock solutions of the compounds. The cell density of Candida albicans ATCC 10231 used as inoculum for the suspension test was 2.4×10^8 cfu/ml and of A. niger ATCC 6275 3.8×10^8 cfu/ml. For the suspension tests, an appropriate concentration of the test compound is mixed with a Candida albicans suspension resulting in a final cell count of about 10^5 cfu/ml. These test mixtures are incubated at room temperature (22° C.+/−2° C.) and aliquots of 1 ml test mixture containing Candida albicans were taken after set contact times for determination of the residual cell count. For inactivation of the antimicrobial compounds, the 1 ml aliquots are diluted in 1:10 steps in a solution with 10% Tween, 3% lecithin, 0.1% histidine and 0.5% sodium thiosulfate.

[3] = tested on: gram positive and gram negative bacteria; experiment: Suspension test for bactericidal activity (modified EN 1040), residual cell count; type: cell-based
Method: The bactericidal activity of the compounds of the present invention is measured in a suspension test according to trivial modifications of the European Standard method EN 1040. Substances listed in Table 1 are tested against gram positive and gram negative bacteria, yeasts and moulds. A selection of the results is shown in the following. The pyrano pyranone derivatives are dissolved in ethanol or DMSO resulting in 1% stock solutions of the compounds. The cell densities of the bacterial suspensions used as inoculums for the suspension test are as follows (cfu=colony forming units): [table] For the suspension tests, an appropriate concentration of the test compound is mixed with a bacterial suspension resulting in a final cell count in the mixture of about 10^5 cfu/ml. These test mixtures are incubated at room temperature (22° C.+/−2° C.) and aliquots of 1 ml test mixture containing the test bacteria were taken after set contact times for determination of the residual cell count of test bacteria. For inactivation of the antimicrobial compounds, the 1 ml aliquots are diluted in 1:10 steps in a solution with 10% Tween, 3% lecithin, 0.1% histidine and 0.5% sodium thiosulfate.

[4] = tested on: Malassezia furfur DSM 6171, CIP 1636-86; experiment: Agar incorporation test, minimum inhibitory concentration (MIC); type: cell-based; settings: M. fufur
Method: For determination of the microbistatic activity, the Minimum Inhibitory Concentrations (MIC) of the test compounds is determined.
The pyrano pyranone derivatives are also tested in an agar incorporation test in order to determine their minimum inhibitory concentrations (MIC) against various tests organisms. A selection of the results is shown in the following.
For this compound, a 1% stock solutions i9s prepared in ethanol.
A dilution series of the test compound in 15 ml still liquid agar media are prepared with 400 ppm, 200 ppm, 100 ppm, 50 ppm, 25 ppm, 12.5 ppm, 6.25 ppm, 3.125 ppm and 1.56 pmm of active.
The media used for the agar plates are Müller-Hinton (Merck) for the determination of the MIC against bacteria and C. albicans and Sabouraud Agar (Merck) for the determination of the MIC against A. niger. For the determination of the MIC against Malassezia furfur DSM 6171, CIP 1636-86 Medium 472 (DSMZ—Deutsche Sammlung von Mikroorganismen and Zellkulturen GmbH) was used.
After solidification of the agar, all agar plates containing the test compounds were stored over night in the laboratory (at about 22° C.) for drying. […]
10 μl of these cell dilutions are then dotted onto the surface of the agar media. […] (for Aspergillus niger), 4 days at 30° C. and then the highest dilution of the test compound at which no more growth was observed (corresponds to the MIC) is determined. […]

[5] = P. aeruginosa, contact time 24 h

`CCCC1C=Cc2c(cc(C)oc2=O)O1` (stereo not shown) [P-6] was tested, and the “log reduction after set contact time” value ([1]; contact time 24 h) was >3, the “residual cell count (cfu/ml) after set contact time” value (“residual cell count (cfu/ml)” for short) ([1]; contact time 24 h) was <10 cfu/ml and the “log reduction after set contact time” value ([2]; contact time 24 h) was >3. For the same molecule, the “residual cell count (cfu/ml)” value ([2]; contact time 24 h) was <100 cfu/ml, the “log reduction after set contact time” value ([3]; E. coli, contact time 24 h) was >3 and the “residual cell count (cfu/ml)” value ([3]; E. coli, contact time 24 h) was <100 cfu/ml. The “log reduction after set contact time” value [3, 5] was >3, the “residual cell count (cfu/ml)” value [3, 5] was <100 cfu/ml and the “log reduction after set contact time” value ([3]; S. aureus, contact time 24 h) was >3. For the same molecule, the “residual cell count (cfu/ml)” value ([3]; S. aureus, contact time 24 h) was <100 cfu/ml.

In the case of `CC1=Cc2c(cc(C)oc2=O)OC1c1ccco1` (stereo not shown) [P-5], the “log reduction after set contact time” value ([2]; contact time 7 d) is reported as >3, the “residual cell count (cfu/ml)” value ([2]; contact time 7 d) is reported as <100 cfu/ml and the MIC [4] is reported as 50 µg/mL (≈ 205 µM). The “log reduction after set contact time” value ([3]; E. coli, contact time 24 h) was >3, the “residual cell count (cfu/ml)” value ([3]; E. coli, contact time 24 h) was 4.0 × 10^2 cfu/ml and the “log reduction after set contact time” value [3, 5] was >3. The “residual cell count (cfu/ml)” value [3, 5] was <100 cfu/ml, the “log reduction after set contact time” value ([3]; S. aureus, contact time 7 d) was >3 and the “residual cell count (cfu/ml)” value ([3]; S. aureus, contact time 7 d) was <100 cfu/ml.

In the case of `CC(C)=CCCC1(C)C=Cc2c(cc(C)oc2=O)O1` (stereo not shown) [P-3], the “log reduction after set contact time” value ([1]; contact time 7 d) is reported as 2.2, the “residual cell count (cfu/ml)” value ([1]; contact time 7 d) is reported as 1.2 × 10^3 cfu/ml and the “log reduction after set contact time” value ([2]; contact time 24 h) is reported as >3. For the same molecule, the “residual cell count (cfu/ml)” value ([2]; contact time 24 h) was <100 cfu/ml, the “log reduction after set contact time” value ([3]; E. coli, contact time 24 h) was >3 and the “residual cell count (cfu/ml)” value ([3]; E. coli, contact time 24 h) was <100 cfu/ml. The “log reduction after set contact time” value [3, 5] was >3, the “residual cell count (cfu/ml)” value [3, 5] was <100 cfu/ml and the “log reduction after set contact time” value ([3]; S. aureus, contact time 24 h) was >3. The “residual cell count (cfu/ml)” value ([3]; S. aureus, contact time 24 h) was <100 cfu/ml.

In the case of `CC1=Cc2c(cc(C)oc2=O)OC1C` (stereo not shown) [P-1], the “log reduction after set contact time” value ([1]; contact time 24 h) is reported as 2.2, the “residual cell count (cfu/ml)” value ([1]; contact time 24 h) is reported as 1.2 × 10^3 cfu/ml and the “log reduction after set contact time” value ([2]; contact time 24 h) is reported as >3. For the same molecule, the “residual cell count (cfu/ml)” value ([2]; contact time 24 h) was <100 cfu/ml, the “log reduction after set contact time” value ([3]; E. coli, contact time 24 h) was >3 and the “residual cell count (cfu/ml)” value ([3]; E. coli, contact time 24 h) was <100 cfu/ml. The “log reduction after set contact time” value [3, 5] was >3, the “residual cell count (cfu/ml)” value [3, 5] was <100 cfu/ml and the “log reduction after set contact time” value ([3]; S. aureus, contact time 24 h) was >3. For the same molecule, the “residual cell count (cfu/ml)” value ([3]; S. aureus, contact time 24 h) was <100 cfu/ml.

For `Cc1cc2c(c(=O)o1)C=CC(C)(C)O2` [P-4], the “log reduction after set contact time” value ([1]; contact time 24 h) was >3, the “residual cell count (cfu/ml)” value ([1]; contact time 24 h) was <10 cfu/ml and the “log reduction after set contact time” value ([2]; contact time 24 h) was >3. For the same molecule, the “residual cell count (cfu/ml)” value ([2]; contact time 24 h) was <100 cfu/ml, the “log reduction after set contact time” value ([3]; E. coli, contact time 24 h) was >3 and the “residual cell count (cfu/ml)” value ([3]; E. coli, contact time 24 h) was <100 cfu/ml. For the same molecule, the “log reduction after set contact time” value [3, 5] was >3, the “residual cell count (cfu/ml)” value [3, 5] was <100 cfu/ml and the “log reduction after set contact time” value ([3]; S. aureus, contact time 24 h) was >3. The “residual cell count (cfu/ml)” value ([3]; S. aureus, contact time 24 h) was <100 cfu/ml.
